Reference: US20110178134A1, “Novel phenyl-substituted imidazolidines, process for preparation thereof, medicaments comprising said compounds and use thereof” (SANOFI-AVENTIS, priority 2008, published 2011)
Read-outs that look alike come from different tables or passages of the source.

What was measured:
[1] = target: human cannabinoid receptor 1 (hCB1R) (Homo sapiens, UniProt P21554); assay: Binding to human cannabinoid receptor 1 (hCB1R), [3H]-SR141716A displacement
Procedure: Binding to Human Cannabinoid Receptor 1 (hCB1R):
Test compounds: The compounds (3 μl, 10 mM, 100% DMSO), pipetted into 96-well PP microtiter plates, were diluted with 27 μl of 100% DMSO (dimethyl sulfoxide). Proceeding from this solution, further 3-fold dilution steps were undertaken by transferring […] in each case to a new PP microtiter plate and adding a further 20 μl of 100% DMSO. In each case 6 μl of these solutions were transferred into new 96-well PP microtiter plates and made up with 144 μl of assay buffer. The end concentrations ranged from 10 μM to 0.005 μM.
Negative control: AM 251, dissolved in assay buffer with 1% DMSO, was added to the dilution series in the microtiter plates as a control. The end concentration was 1 μM.
Blank control: assay buffer with 1% DMSO was added to the dilution series of the microtiter plates as a blank control.
Summary of the Assay Parameters:
High control: ^3H binding without addition of the compound
Low control: ^3H binding in the presence of 1 μM AM 251
The values were calculated using the corrected raw data.
The values reported were obtained as average values of a double determination. The IC50 values were calculated from the measurements with the program Xlfit, formula 205. Ki values were obtained from the IC50 and Kd values utilizing the Cheng-Prusoff equation: […]
Literature: Cheng, Y.-C., and Prusoff, W. H. (1973) Biochem. Pharmacol 22, 3099-3108

[2] = target: T1, human androgen receptor (hAR) (Homo sapiens, UniProt P10275, T878A); assay: Binding assay with human androgen receptor, [3H]methyltrienolone, LNCaP cytosol; conditions: for inhibition at 10 µM / inhibition at 1 µM: inhibition of [3H]methyltrienolone binding; for inhibition at 10 µM: compound 10 μM; for inhibition at 1 µM: compound 1 μM
T1 construct: for the preparation of cytosolic receptor protein, the androgen-sensitive human prostate adenocarcinoma cell line LNCaP was used; endogenous in cells; host or cells: LNCaP (human prostate adenocarcinoma) cell cytosol fraction
T1 sequence (P10275 1-920 T878A): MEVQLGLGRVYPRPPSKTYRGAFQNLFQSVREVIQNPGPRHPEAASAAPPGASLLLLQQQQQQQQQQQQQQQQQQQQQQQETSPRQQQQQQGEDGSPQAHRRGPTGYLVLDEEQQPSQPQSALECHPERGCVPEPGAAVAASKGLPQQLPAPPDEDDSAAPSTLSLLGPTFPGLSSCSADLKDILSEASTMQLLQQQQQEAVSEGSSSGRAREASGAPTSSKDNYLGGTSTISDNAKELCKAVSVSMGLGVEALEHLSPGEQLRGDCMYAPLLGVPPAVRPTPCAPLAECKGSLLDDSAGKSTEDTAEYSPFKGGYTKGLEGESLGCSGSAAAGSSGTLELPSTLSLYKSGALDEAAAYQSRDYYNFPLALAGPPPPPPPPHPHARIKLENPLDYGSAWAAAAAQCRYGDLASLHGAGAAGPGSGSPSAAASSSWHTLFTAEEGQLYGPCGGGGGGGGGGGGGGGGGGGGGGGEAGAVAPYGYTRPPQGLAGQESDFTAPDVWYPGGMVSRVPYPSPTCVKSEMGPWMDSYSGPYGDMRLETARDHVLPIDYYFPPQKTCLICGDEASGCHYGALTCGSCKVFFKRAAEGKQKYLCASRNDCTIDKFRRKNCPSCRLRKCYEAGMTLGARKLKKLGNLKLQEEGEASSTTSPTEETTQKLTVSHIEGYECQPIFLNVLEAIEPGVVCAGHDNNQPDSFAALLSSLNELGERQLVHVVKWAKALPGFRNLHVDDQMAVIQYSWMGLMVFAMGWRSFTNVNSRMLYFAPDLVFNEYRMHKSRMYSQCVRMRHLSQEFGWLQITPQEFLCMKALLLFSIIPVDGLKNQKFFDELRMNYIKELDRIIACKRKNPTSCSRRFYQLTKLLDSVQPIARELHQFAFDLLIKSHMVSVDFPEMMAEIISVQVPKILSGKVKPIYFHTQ
Procedure: Binding Assay with Human Androgen Receptor:
The binding assays on the androgen receptor were conducted according to the method of D. T. Zava et al. (1979) (“Androgen Receptor Assay with [^3H]Methyltrienolone (R1881) in the Presence of Progesterone Receptor”, Endocrinology, 104, 1007-1012). The radioactive ligand used for the binding measurement was [^3H]methyltrienolone and the reference substance was the same compound in unmarked (=nonradioactive) form. To determine the unspecific proportion of binding, 1 μM mibolerone was used. In a departure from the method cited, for the preparation of cytosolic receptor protein, the androgen-sensitive human prostate adenocarcinoma cell line LNCaP was used. For the analysis, aliquots of a cell cytosol fraction (proceeding from 10^6 cells per analysis point) were incubated, in a buffer in the presence or absence of test substance, with 0.5 nM [^3H]methyltrienolone at 4° C. for 24 hours (25 mM HEPES/Tris, 1 mM EDTA, 10 mM Na2MoO4, 2 mM DTT, 10% glycerol; pH 7.4). The samples were then mixed with 400 μl each of an activated carbon suspension and the mixtures were centrifuged (10 minutes, 8000×g). Supernatants were withdrawn and mixed with 5 ml each of scintillation cocktail, and the radioactivity of the samples was measured in a scintillation counter. Specific ligand binding to the receptors was calculated as the difference between total binding and the unspecific binding in the presence of an excess of nonmarked ligand. End results were represented as percent specific binding compared to the binding of control substance.
The strength of the binding to the human androgen receptor is expressed as percent inhibition of the binding of [^3H]methyltrienolone to the human androgen receptor. The concentration of the compounds examined is 1 μM or 10 μM. The greater the numerical value of “percent inhibition at 1 or 10 μM”, the stronger is the binding of the test substance to the human androgen receptor. Alternatively, the Ki value is reported; the greater this value compared to the Ki value based on the binding to the hCB1R, the lower is the binding to the hAR.

[3] = CHO-K1/cannabinoid CB1 protein, 0.5 nM [3H]-SR141716A, Cheng-Prusoff, read-out: hCB1R, binding Ki

Chain of human cannabinoid receptor 1 (hCB1R) (P21554 whole entry): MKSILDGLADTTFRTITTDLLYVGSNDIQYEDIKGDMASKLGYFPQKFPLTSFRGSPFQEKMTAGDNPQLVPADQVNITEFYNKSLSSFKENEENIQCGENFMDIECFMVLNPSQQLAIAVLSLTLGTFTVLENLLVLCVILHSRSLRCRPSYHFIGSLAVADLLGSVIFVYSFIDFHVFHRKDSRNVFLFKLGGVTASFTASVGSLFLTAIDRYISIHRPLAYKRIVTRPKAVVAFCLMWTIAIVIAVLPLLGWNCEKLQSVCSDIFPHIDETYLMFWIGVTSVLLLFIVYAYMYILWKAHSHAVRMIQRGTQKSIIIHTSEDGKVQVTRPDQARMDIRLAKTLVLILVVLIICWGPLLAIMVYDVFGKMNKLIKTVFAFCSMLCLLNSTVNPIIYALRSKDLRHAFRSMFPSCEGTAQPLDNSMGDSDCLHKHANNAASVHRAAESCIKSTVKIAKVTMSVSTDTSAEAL

Compound	Ki [1] [nM]	Ki [1, 3] [nM]	inhibition at 1 µM [2] [%]	other results
CC1(C)C(=O)N(c2ccc(C#N)c(C(F)(F)F)c2)C(=O)N1Cc1ccc(C(F)(F)F)cc1 [4-[4,4-dimethyl-2,5-dioxo-3-(4-trifluoromethylbenzyl)-imidazolidin-1-yl]-2-trifluoromethylbenzonitrile, reference compound]	76	–	–	Ki ([2]; read-out: Ki value based on binding to the human androgen receptor): 96 nM
CC1(C)C(=O)N(c2ccc(C#N)c(C(F)(F)F)c2)C(=O)N1Cc1cc(C(F)(F)F)cc(C(F)(F)F)c1 [Example 1, 4-[3-(3,5-bis(trifluoromethyl)benzyl)-4,4-dimethyl-2,5-dioxoimidazolidin-1-yl]-2-trifluoromethylbenzonitrile]	4	–	–	inhibition at 10 µM [2]: 26%
CC1(C)C(=O)N(c2ccc(C#N)c(C(F)(F)F)c2)C(=O)N1Cc1ccc(OC(F)(F)F)cc1 [Example 2, 4-[4,4-dimethyl-2,5-dioxo-3-(4-trifluoromethoxybenzyl)imidazolidin-1-yl]-2-trifluoromethylbenzonitrile]	–	200	20	–
CC1(C)C(=O)N(c2ccc(C#N)c(C(F)(F)F)c2)C(=O)N1Cc1cccc(C(F)(F)F)c1 [Example 3, 4-[4,4-dimethyl-2,5-dioxo-3-(3-trifluoromethylbenzyl)imidazolidin-1-yl]-2-trifluoromethylbenzonitrile]	–	127	54	–
CC1(C)C(=O)N(c2ccc(C#N)c(C(F)(F)F)c2)C(=O)N1Cc1ccc(Cl)nc1 [Example 5, 4-[3-(6-chloropyridin-3-ylmethyl)-4,4-dimethyl-2,5-dioxoimidazolidin-1-yl]-2-trifluoromethylbenzonitrile]	25	–	86	–
CC1(C)C(=O)N(c2ccc(C#N)c(C(F)(F)F)c2)C(=O)N1Cc1ccc(C(F)(F)F)nc1 [Example 6, 4-[4,4-dimethyl-2,5-dioxo-3-(6-trifluoromethylpyridin-3-ylmethyl)-imidazolidin-1-yl]-2-trifluoromethylbenzonitrile]	11	–	84	–
CC1(C)C(=O)N(c2ccc(F)c(C(F)(F)F)c2)C(=O)N1Cc1ccc(C(F)(F)F)nc1 [Example 7, 3-(4-fluoro-3-trifluoromethylphenyl)-5,5-dimethyl-1-(6-trifluoromethyl-pyridin-3-ylmethyl)imidazolidine-2,4-dione]	–	205	47	–
CC1(C)C(=O)N(c2ccc(Cl)c(C(F)(F)F)c2)C(=O)N1Cc1ccc(C(F)(F)F)nc1 [Example 8, 3-(4-chloro-3-trifluoromethylphenyl)-5,5-dimethyl-1-(6-trifluoromethyl-pyridin-3-ylmethyl)imidazolidine-2,4-dione]	–	227	53	–
CC1(C)C(=O)N(c2ccc(F)c(C(F)(F)F)c2)C(=O)N1Cc1cc(C(F)(F)F)cc(C(F)(F)F)c1 [Example 9, 1-(3,5-bis(trifluoromethyl)benzyl)-3-(4-fluoro-3-trifluoromethylphenyl)-5,5-dimethylimidazolidine-2,4-dione]	–	295	–	inhibition at 10 µM [2]: 3%
CC1(C)C(=O)N(c2ccc(Cl)c(C(F)(F)F)c2)C(=O)N1Cc1cc(C(F)(F)F)cc(C(F)(F)F)c1 [Example 10, 1-(3,5-bis(trifluoromethyl)benzyl)-3-(4-chloro-3-trifluoromethylphenyl)-5,5-dimethylimidazolidine-2,4-dione]	81	–	3	–
CC1(C)C(=O)N(c2ccc(C#N)c(C(F)(F)F)c2)C(=O)N1Cc1cccc(S(F)(F)(F)(F)F)c1 [Example 11, 4-[4,4-dimethyl-2,5-dioxo-3-(3-pentafluorosulfanylbenzyl)imidazolidin-1-yl]-2-trifluoromethylbenzonitrile]	17	–	39	–
CC1(C)C(=O)N(c2ccc(C#N)c(C(F)(F)F)c2)C(=O)N1Cc1ccc(OCc2ccccc2)c(OCc2ccccc2)c1 [Example 33, 4-[3-(3,4-bis(benzyloxy)benzyl)-4,4-dimethyl-2,5-dioxoimidazolidin-1-yl]-2-trifluoromethylbenzonitrile]	26	–	–	Ki ([2]; reported instead of % inhibition in table 5, read-out: hAR, Ki): > 1000 nM
CC1(C)C(=O)N(c2ccc(C#N)c(C(F)(F)F)c2)C(=O)N1Cc1ccccc1Oc1ccccc1 [Example 34, 4-[4,4-dimethyl-2,5-dioxo-3-(2-phenoxybenzyl)imidazolidin-1-yl]-2-trifluoromethylbenzonitrile]	6	–	30	–
CC1(C)C(=O)N(c2ccc(Cl)c(C(F)(F)F)c2)C(=O)N1Cc1ccc(OCc2ccccc2)c(OCc2ccccc2)c1 [Example 37]	–	219	–	inhibition at 10 µM [2]: 4%
CC1(C)C(=O)N(c2ccc(F)c(C(F)(F)F)c2)C(=O)N1Cc1ccccc1Oc1ccccc1 [Example 44, 3-(4-fluoro-3-trifluoromethylphenyl)-5,5-dimethyl-1-(2-phenoxybenzyl)imidazolidine-2,4-dione]	–	100	–	inhibition at 10 µM [2]: 15%
CC1(C)C(=O)N(c2ccc(F)c(C(F)(F)F)c2)C(=O)N1Cc1ccc(F)cc1NS(N)(=O)=O [Example 52, N-{5-fluoro-2-[3-(4-fluoro-3-trifluoromethylphenyl)-5,5-dimethyl-2,4-dioxoimidazolidin-1-ylmethyl]phenyl}sulfamide]	41	–	52	–
